Experiment: Malvern laser diffraction particle sizing
Type: physicochemical
Details: Malvern Mastersizer X; dispersant iso octane/lecithin 0.05% w/w; sonicated 3 minutes; one analysis per sample
Procedure: Particles of Examples 1A and 1B were analysed using Malvern laser diffraction particle sizing. Instrument: Malvern Mastersizer X Lens: 45 mm Reverse Fourier Analysis: 0607 presentation code Dispersant: Iso Octane/Lecithin 0.05% w/w Pre dispersion: Sonicate for 3 minutes Obscuration: 10% to 16% One analysis per sample was carried out. The median particle size (D50), particle size at 90% undersize (D90) and particle size at 10% undersize (D10) were used as responses to characterise the medium, course, and fine particles.

With `CCC(=O)O[C@]1(C(=O)SCF)[C@H](C)C[C@H]2[C@@H]3C[C@H](F)C4=CC(=O)C=C[C@]4(C)[C@@]3(F)[C@@H](O)C[C@@]21C` [Example 1A, fluticasone propionate] as the compound, how does the “D10 (particle size at 10% undersize)” value read?
The value was 1.01 μm.

And the “D50 (median particle size)” value?
The value was 2.68 μm.

And the “D90 (particle size at 90% undersize)” value?
Its value is 5.93 μm.

With `CCC(=O)O[C@]1(C(=O)SCF)[C@H](C)C[C@H]2[C@@H]3C[C@H](F)C4=CC(=O)C=C[C@]4(C)[C@@]3(F)[C@@H](O)C[C@@]21C` [Example 1B, fluticasone propionate] as the compound, how does the “D10 (particle size at 10% undersize)” value read?
Its value is 1.77 μm.

What about the “D50 (median particle size)” value of the same compound?
The value was 3.65 μm.

What about the “D90 (particle size at 90% undersize)” value of the same compound?
Its value is 7.24 μm.

— patent publication US20040045805A1, “Novel process for preparing and harvesting crystalline particles” (priority 2000, published 2004)
